These results are taken from patent publication US8957069B2, “Benzofuran derivatives” (Takeda Pharmaceutical Company Limited, priority 2009, dated 2015).

Molecules are shown by their SMILES.

The test system of this assay is rat mixed glial culture. The experiment in a line: Activity of promoting neuronal neogenesis in rat mixed glial culture. Format: cell-based. To be noted: compound 1 μM + rhIGF-1 100 ng/ml, three days; anti-class III beta-tubulin, absorbance at 450 nm; control (rhIGF-1 only) = 100%. As for the experimental part: From a three-day old SD rat, hippocampus and cerebral cortex were removed. By using a kit of dispersion liquid for neuronal cells (MB-X9901, manufactured by SUMITOMO BAKELITE CO., LTD.), cell suspension was prepared and then seeded on a 96-well plate coated with collagen Type I (4860-010, manufactured by Asahi Techno Glass Co., Ltd.) to 10^5 cells/well. Under the condition of 37° C. and 5% CO2, the cells were cultured for four days in a growth medium (D-MEM/F12 with 10% FBS, comprising PS).
After culturing, the medium was exchanged with a medium for differentiation (D-MEM/F12, comprising PS), added with rhIGF-1 (R&D Systems, 291-G1-250, final concentration of 100 ng/ml) and the compound to 1 μM, followed by further culture for three days. […] By using the plate reader (Labsystems Multiskan BICHROMATIC), absorbance at 450 nm was measured.
The absorbance for the case in which no compound is added (i.e., control, rhIGF-1 only) was 100%, and the increase ratio of the absorbance for the compound addition (i.e., compound+rhIGF-1) compared to the control was obtained as % control. Activity of the each compound for promoting neuronal differentiation that is measured according to the above method is summarized in Table 9 and Table 10.

In the case of `COc1ccc(N2CCN(c3c(C)c(C)c4c(c3C)CC(C)(CO)O4)CC2)cc1` (single isomer, unassigned; (+)) [Example 144, (+)-{5-[4-(4-methoxyphenyl)piperazin-1-yl]-2,4,6,7-tetramethyl-2,3-dihydro-1-benzofuran-2-yl}methanol], the “Increase Ratio of the Absorbance (% control)” value is recorded as >500 % control.
